Reference: US20190160049A1, “2-OXO-1,2-DIHYDROPYRIDINE-3-CARBOXAMIDE COMPOUNDS AND THEIR USE AS DUAL INHIBITORS OF PDK1/AURA” (INTERNATIONAL SOCIETY FOR DRUG DEVELOPMENT S.R.L., priority 2016, published 2019)

How the values were obtained:
Assay type in all cases: cell-based
[1] = system: cancer stem cell (CSC) neurospheres obtained from U87MG cells; assay: CSC (GBM stem cell) proliferation, MTS assay; settings: seven days
Description: FIG. 3 illustrates the effects of SA16 on CSC proliferation of example 3b. CSCs were treated in complete neurosphere medium with different concentrations of SA16 (1 nM-100 μM) for seven days. At the end of treatment, cell proliferation was measured using the MTS assay. The data are expressed as a percentage with respect to that of untreated cells (control), which was set to 100%, and are the mean values±SEM of three independent experiments, each performed in duplicate. IC50 value after seven days of treatment were calculated from sigmoid dose-response curve;
FIG. 4 illustrates combined inhibition of PDK1 and Aurora A on CSCs proliferation of example 3b. CSCs were treated in complete medium with different concentrations of MP7, in the presence or absence of Alisertib, for seven days. At the end of treatment, cell proliferation was measured using the MTS assay.
The data are expressed as a percentage with respect to that of untreated cells (control), which was set to 100%, and are the mean values±SEM of three independent experiments, each performed in duplicate. The significance of the differences was determined with a one-way ANOVA with Bonferroni post-test: * p<0.05, *** p<0.001 vs. control cells; ## p<0.01, ### p<0.001 vs. cells treated with MP7 alone; §§ p<0.01, § § § p<0.001 vs. cells treated with Alisertib alone;
The inventors also examined the effects of SA16 compound on cancer stem cell (CSC) neurospheres obtained from U87MG cells.

CSC neurospheres = assay: Sphere-derived cell morphology (neurosphere area, outgrowth of cellular processes); settings: seven days, SA16 10 nM, 1 μM, 10 μM; for area occupied by the neurospheres: 2.5 PIM MP7, 1.5 μM Alisertib
Description: FIG. 5 illustrates the effects of SA16 on sphere-derived cell morphology of Example 3c. CSCs were treated for seven days with complete NSC medium containing DMSO (control), or SA16 (10 nM, 1 μM, 10 μM) (A) Representative cell micrographs of control and SA16 (10 μM) after seven days of treatment are shown. The area of the culture plates occupied by the spheres (B) and the length of cellular processes (C) were scored after seven days of treatment. The counts represent the mean values±SEM of two independent experiments. The significance of differences was determined with a one-way ANOVA with Bonferroni post-test: * p<0.05, ** p<0.01, *** p<0.001 vs. control cells.
FIG. 7 illustrates the effects of MP7, Alisertib and of their combined treatment on sphere-derived cell morphology of example 3c. CSCs were treated for seven days with complete NSC medium containing DMSO (control), MP7 and/or alisertib (A) Representative cell micrographs after seven days of treatment are shown. The area of the culture plates occupied by the spheres (B) and the length of cellular processes (C) were scored after seven days of treatment. The counts represent the mean values±SEM of two independent experiments. The significance of differences was determined with a one-way ANOVA with Bonferroni post-test: * p<0.05, *** p<0.001 vs. control cells; ## p<0.01 vs. cells treated with MP7 alone; § p<0.05 vs. cells treated with Alisertib alone.
The effects of SA16 on morphology of neurospheres were evaluated by quantifying the area occupied by the cells in culture plates, as well as the outgrowth of cellular processes.
The inventors then evaluated the effects of MP7, Alisertib and of their combination on CSC differentiation. The cells were incubated with […] MP7, alone or in combination with 1.5 μM Alisertib for seven days.

U87MG cells = assay: U87MG cell proliferation, MTS assay; settings: 72 h
Description: FIG. 1 illustrates the effects of SA16 on U87MG cell proliferation of example 3 (a). U87MG cells were treated in complete medium with different concentrations of SA16 (1 nM-100 μM) for 72 h. At the end of treatment, cell proliferation was measured using the MTS assay. The data are expressed as a percentage with respect to that of untreated cells (control), which was set to 100%, and are the mean values±SEM of three independent experiments, each performed in duplicate. The significance of the differences was determined with a one-way ANOVA with Bonferroni post-test: * p<0.05, ** p<0.01, *** p<0.001 vs. control cells;
FIG. 2 illustrates the combined inhibition of PDK1 and Aurora A on U87MG cell proliferation of example 3a. U87MG cells were treated in complete medium with different concentrations of MP7, in the presence or absence of Alisertib, for 72 h. At the end of treatment, cell proliferation was measured using the MTS assay. The data are expressed as a percentage with respect to that of untreated cells (control), which was set to 100%, and are the mean values±SEM of three independent experiments, each performed in duplicate. The significance of the differences was determined with a one-way ANOVA with Bonferroni post-test: * p<0.05, *** p<0.001 vs. control cells; ## p<0.01, ### p<0.001 vs. cells treated with MP7 alone; §§ p<0.01, § § § p<0.001 vs. cells treated with Alisertib alone;
To examine the effects of SA16 on U87MG cell growth/survival, U87MG cells were incubated with different concentrations of the compound SA16 (1 nM-10 μM) for 72 h.
In parallel experiments, U87MG proliferation was assessed in the presence of a well-known PDK1 inhibitor MP7, alone or in combination with the Aurora A inhibitor, Alisertib.

Row | Compound | effect on CSC proliferation (in words) [1] | outgrowth of cellular processes (CSC neurospheres; 1.5 μM Alisertib) | area occupied by the neurospheres (CSC neurospheres) | effect on U87MG cell proliferation (in words) (U87MG cells)
1 | COc1cc(Nc2ncc3c(n2)-c2ccc(Cl)cc2C(c2c(F)cccc2OC)=NC3)ccc1C(=O)O [Alisertib, 4-{[9-Chloro-7-(2-fluoro-6-methoxyphenyl)-5H-pyrimido[5,4-d][2]benzazepin-2-yl]amino}-2-methoxybenzoic acid] | anti-proliferative effects on CSCs, in a concentration-dependent manner | modest but significant outgrowth of cellular processes | reduction in the area occupied by the neurospheres | slightly reduced U87MG cell proliferation
2 | O=C(N[C@@H](COc1ccc2[nH]c(=O)[nH]c2c1)c1ccccc1)c1cccn(Cc2ccc(F)c(F)c2)c1=O [MP7, 1-(3,4-difluorobenzyl)-2-oxo-N-{(1R)-2-[(2-oxo-2,3-dihydro-1H-benzimidazol-5-yl)oxy]-1-phenylethyl}-1,2-dihydropyridine-3-carboxamide] | slight effects on U87MG proliferation | – | reduction in the area occupied by the neurospheres | did not show a significant inhibition of cell proliferation
